Consider one molecule from article PMC8085414, “L-Carnitine Production Through Biosensor-Guided Construction of the Neurospora crassa Biosynthesis Pathway in Escherichia coli” (Frontiers in Bioengineering and Biotechnology, 2021).

This assay concerns the target T1, TMABADH.1S (Neurospora crassa, UniProt Q7RYT1).
T1 construct: gene NCU00378; 495 AA short annotation of NCU00378; codon-harmonized synthetic gene in pECXT99A, E. coli DH5alpha crude extract
T1 sequence (Q7RYT1 52-546): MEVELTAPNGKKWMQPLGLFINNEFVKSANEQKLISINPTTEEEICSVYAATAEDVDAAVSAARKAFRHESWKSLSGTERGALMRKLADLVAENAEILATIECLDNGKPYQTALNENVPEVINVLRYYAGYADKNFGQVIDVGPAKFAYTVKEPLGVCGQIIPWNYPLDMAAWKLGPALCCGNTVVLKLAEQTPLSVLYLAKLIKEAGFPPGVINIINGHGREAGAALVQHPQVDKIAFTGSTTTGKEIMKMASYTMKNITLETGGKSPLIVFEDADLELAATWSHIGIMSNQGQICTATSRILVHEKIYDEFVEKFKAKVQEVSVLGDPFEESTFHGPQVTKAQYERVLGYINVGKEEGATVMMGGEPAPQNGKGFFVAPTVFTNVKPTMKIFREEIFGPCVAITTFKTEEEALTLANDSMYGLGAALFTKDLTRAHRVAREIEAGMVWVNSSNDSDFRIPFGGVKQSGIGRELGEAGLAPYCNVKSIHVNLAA
The assay is described as follows: NADH formation at […] nm, E. coli crude extract. The note with it: 2 mM NAD+, 0.4 mM TMABA iodide, glycine-NaOH pH 9.5, 30 °C. Format: biochemical.

For `NC(=O)c1ccc[n+]([C@@H]2O[C@H](COP(=O)(O)OP(=O)(O)OC[C@H]3O[C@@H](n4cnc5c(N)ncnc54)[C@H](O)[C@@H]3O)[C@@H](O)[C@H]2O)c1` [NAD^+], the “NADH formation at 340 nm, E. coli crude extract” value is “co-conversion of NAD^+ to NADH in the TMABADH reaction”.
